Like-named read-outs stand apart in the source and are kept apart here.
Legend:
RS4;11 cells = assay: Cell proliferation assay (MTS), RS4;11 cells, 72 h; type: cell-based
How it was run: (§1)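 RS4;11 and DOHH2 cells at 5000 cells/well in RPMI-1640 with 10% FBS were treated with compound at 1.5–10000 nM final, nine points, at 37 °C, 5% CO2. Exposure was 72 h for RS4;11 and 120 h for DOHH2. MTS was added for 2 h, absorbance read at 490/650 nm, and IC50 calculated.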

DOHH2 cells = assay: Cell proliferation assay (MTS), DOHH2 cells, 120 h; type: cell-based
How it was run: as §1

| Compound | IC50 (RS4;11 cells; Homo sapiens, RS4-11, 72 h) | IC50 (DOHH2 cells; Homo sapiens, DOHH-2, 120 h) | IC50 (RS4;11 cells) | IC50 (DOHH2 cells) |
| --- | --- | --- | --- | --- |
| C[C@H]1CNc2c(cc(S(=O)(=O)NC(=O)c3ccc(N4CCN(CC5=C(c6ccc(Cl)cc6)CC(C)(C)CC5)CC4)cc3Oc3cnc4[nH]ccc4c3)cc2[N+](=O)[O-])O1 [Example 2-105, (S)-2-((1H-pyrrolo[2,3-b]pyridin-5-yl)oxy)-4-(4-((4′-chloro-5,5-dimethyl-3,4,5,6-tetra-hydro-[1,1′-biphenyl]-2-yl)methyl)piperazin-1-yl)-N-((2-methyl-5-nitro-3,4-dihydro-2H-benzo[b][1,4]oxazin-7-yl)sulfonyl)benza-mide] | 35 nM | 51 nM | – | – |
| C[C@@H]1COc2cc(S(=O)(=O)NC(=O)c3ccc(N4CCN(CC5=C(c6ccc(Cl)cc6)CC(C)(C)CC5)CC4)cc3Oc3cnc4[nH]ccc4c3)cc([N+](=O)[O-])c2N1 [Example 2-106, (R)-2-((1H-pyrrolo[2,3-b]pyridin-5-yl)oxy)-4-(4-((4′-chloro-5,5-dimethyl-3,4,5,6-tetra-hydro-[1,1′-bipehnyl]-2-yl)methyl)piperazin-1-yl)-N-((3-methyl-5-nitro-3,4-dihydro-2H-benzo[b][1,4]oxazin-7-yl)sulfonyl)benza-mide] | 9 nM | 19 nM | – | – |
| CC[C@@H]1COc2cc(S(=O)(=O)NC(=O)c3ccc(N4CCN(CC5=C(c6ccc(Cl)cc6)CC(C)(C)CC5)CC4)cc3Oc3cnc4[nH]ccc4c3)cc([N+](=O)[O-])c2N1 [Example 2-107] | 8 nM | 22 nM | – | – |
| CC(C)[C@@H]1COc2cc(S(=O)(=O)NC(=O)c3ccc(N4CCN(CC5=C(c6ccc(Cl)cc6)CC(C)(C)CC5)CC4)cc3Oc3cnc4[nH]ccc4c3)cc([N+](=O)[O-])c2N1 [Example 2-108, (R)-2-((1H-pyrrolo[2,3-b]pyridin-5-yl)oxy)-4-(4-((4′-chloro-5,5-dimethyl-3,4,5,6-tetra-hydro-[1,1′-biphenyl]-2-yl)methyl)piperazin-1-yl)-N-((3-isopropyl-5-nitro-3,4-dihydro-2H-benzo[b][1,4]oxazin-7-yl)sulfonyl) benzamide] | 16 nM | 51 nM | – | – |
| CC1(C)CCC(CN2CCN(c3ccc(C(=O)NS(=O)(=O)c4cc5c(c([N+](=O)[O-])c4)N[C@H](C4CC4)CO5)c(Oc4cnc5[nH]ccc5c4)c3)CC2)=C(c2ccc(Cl)cc2)C1 [Example 2-109, (R)-2-((1H-pyrrolo[2,3-b]pyridin-5-yl)oxy)-4-(4-((4′-chloro-5,5-dimethyl-3,4,5,6-tetra-hydro[1,1′-biphenyl]-2-yl)methyl)piperazin-1-yl)-N-((3-cyclopropyl-5-nitro-3,4-dihy-dro-2H-benzo[b][14,]oxazin-7-yl)sulfonyl) benzamide] | 11 nM | 56 nM | – | – |
| COC[C@@H]1COc2cc(S(=O)(=O)NC(=O)c3ccc(N4CCN(CC5=C(c6ccc(Cl)cc6)CC(C)(C)CC5)CC4)cc3Oc3cnc4[nH]ccc4c3)cc([N+](=O)[O-])c2N1 [Example 2-110, (R)-2-((1H-pyrrolo[2,3-b]pyridin-5-yl)oxy)-4-(4-((4′-chloro-5,5-dimethyl-3,4,5,6-tetra-hydro-[1,1′-biphenyl]-2-yl)methyl)piperazin-1-yl)-N-((3-(methoxymethyl)-5-nitro-3,4-dihydro-2H-benzo[b][1,4]oxazin-7-yl)sulfo-nyl)benzamide] | 2 nM | 96 nM | – | – |
| C[C@H]1COc2cc(S(=O)(=O)NC(=O)c3ccc(N4CCN(CC5=C(c6ccc(Cl)cc6)CC(C)(C)CC5)CC4)cc3Oc3cnc4[nH]ccc4c3)cc([N+](=O)[O-])c2N1 [Example 2-111, (S)-2-((1H-pyrrolo[2,3-b]pyridin-5-yl)oxy)-4-(4-((4′-chloro-5,5-dimethyl-3,4,5,6-tetra-hydro-[1,1′-biphenyl]-2-yl)methyl)piperazin-1-yl)-N-((3-methyl-5-nitro-3,4-dihydro-2H-benzo[b][1,4]oxazin-7-yl)sulfonyl)benza-mide] | 28 nM | 26 nM | – | – |
| CC1(C)CCC(CN2CCN(c3ccc(C(=O)NS(=O)(=O)c4cc5c(c([N+](=O)[O-])c4)N[C@@H](CC#N)CO5)c(Oc4cnc5[nH]ccc5c4)c3)CC2)=C(c2ccc(Cl)cc2)C1 [Example 2-115, (S)-2-((1H-pyrrolo[2,3-b]pyridin-5-yl)oxy)-4-(4-((4′-chloro-5,5-dimethyl-3,4,5,6-tetra-hydro-[1,1′-biphenyl]-2-yl)methyl)piperazin-1-yl)-N-((3-(cyanomethyl)-5-nitro-3,4-di-hydro-2H-benzo[b][1,4]oxazin-7-yl)sulfonyl-yl)benzamide] | – | – | 6 nM | 38 nM |

The next lines start with results.

| IC50 (RS4;11 cells; Homo sapiens, RS4-11, 72 h) | Compound | IC50 (DOHH2 cells; Homo sapiens, DOHH-2, 120 h) | IC50 (RS4;11 cells) | IC50 (DOHH2 cells) |
| --- | --- | --- | --- | --- |
| 11 nM | CC[C@H]1COc2cc(S(=O)(=O)NC(=O)c3ccc(N4CCN(CC5=C(c6ccc(Cl)cc6)CC(C)(C)CC5)CC4)cc3Oc3cnc4[nH]ccc4c3)cc([N+](=O)[O-])c2N1 [Example 2-112] | 15 nM | – | – |
| 6 nM | CC(C)[C@H]1COc2cc(S(=O)(=O)NC(=O)c3ccc(N4CCN(CC5=C(c6ccc(Cl)cc6)CC(C)(C)CC5)CC4)cc3Oc3cnc4[nH]ccc4c3)cc([N+](=O)[O-])c2N1 [Example 2-113, (S)-2-((1H-pyrrolo[2,3-b]pyridin-5-yl)oxy)-4-(4-((4′-chloro-5,5-dimethyl-3,4,5,6-tetra-hydro-[1,1′-biphenyl]-2-yl)methyl)piperazin-1-yl)-N-((3-isopropyl-5-nitro-3,4-dihydro-2H-benzo[b][1,4]oxazin-7-yl)sulfonyl) benzamide] | 20 nM | – | – |
| 1 nM | CC1(C)CCC(CN2CCN(c3ccc(C(=O)NS(=O)(=O)c4cc5c(c([N+](=O)[O-])c4)N[C@@H](C4CC4)CO5)c(Oc4cnc5[nH]ccc5c4)c3)CC2)=C(c2ccc(Cl)cc2)C1 [Example 2-114, (S)-2-((1H-pyrrolo[2,3-b]pyridin-5-yl)oxy)-4-(4-((4′-chloro-5,5-dimethyl-3,4,5,6-tetra-hydro-[1,1′-biphenyl]-2-yl)methyl)piperazin-1-yl)-N-((3-cyclopropyl-5-nitro-3,4-di-hydro-2H-benzo[b][1,4]oxazin-7-yl)sulfonyl)benzamide] | 48 nM | – | – |
| 16 nM | COC[C@H]1COc2cc(S(=O)(=O)NC(=O)c3ccc(N4CCN(CC5=C(c6ccc(Cl)cc6)CC(C)(C)CC5)CC4)cc3Oc3cnc4[nH]ccc4c3)cc([N+](=O)[O-])c2N1 [Example 2-116, (S)-2-((1H-pyrrolo[2,3-b]pyridin-5-yl)oxy)-4-(4-((4′-chloro-5,5-dimethyl-3,4,5,6-tetra-hydro-[1,1′-biphenyl]-2-yl)methyl)piperazin-1-yl)-N-((3-(methoxymethyl)-5-nitro-3,4-dihydro-2H-benzo[b][1,4]oxazin-7-yl)sulfonyl)benzamide] | 83 nM | – | – |
| 44 nM | CC1(C)CCC(CN2CCN(c3ccc(C(=O)NS(=O)(=O)c4cc5c(c([N+](=O)[O-])c4)N[C@@H](COC(=O)N4CCOCC4)CO5)c(Oc4cnc5[nH]ccc5c4)c3)CC2)=C(c2ccc(Cl)cc2)C1 [Example 2-117, (R)-(7-(N-(2-((1H-pyrrolo[2,3-b]pyridin-5-yl)oxy)-4-(4-((4′-chloro-5,5-dimethyl-3,4,5,6-tetrahydro-[1,1′-biphenyl]-2-yl)methyl)piperazin-1-yl)benzoyl)sulfamoyl)-5-nitro-3,4-dihydro-2H-benzo[b][1,4]oxazin-3-yl)methyl morpholine-4-carboxylate] | 41 nM | – | – |
| 11 nM | COCC[C@H]1COc2cc(S(=O)(=O)NC(=O)c3ccc(N4CCN(CC5=C(c6ccc(Cl)cc6)CC(C)(C)CC5)CC4)cc3Oc3cnc4[nH]ccc4c3)cc([N+](=O)[O-])c2N1 [Example 2-118, (S)-2-((1H-pyrrolo[2,3-b]pyridin-5-yl)oxy)-4-(4-((4′-chloro-5,5-dimethyl-3,4,5,6-tetra-hydro-[1,1′-biphenyl]-2-yl)methyl)piperazin-1-yl)-N-((3-(2-methoxyethyl)-5-nitro-3,4-dihydro-2H-benzo[b][1,4]oxazin-7-yl)sulfonyl)benzamide] | 649 nM | – | – |
| 36 nM | CC1(C)CCC(CN2CCN(c3ccc(C(=O)NS(=O)(=O)c4cc5c(c([N+](=O)[O-])c4)N[C@@H](CN4CCS(=O)(=O)CC4)CO5)c(Oc4cnc5[nH]ccc5c4)c3)CC2)=C(c2ccc(Cl)cc2)C1 [Example 2-121, (S)-2-((1H-pyrrolo[2,3-b]pyridin-5-yl)oxy)-4-(4-((4′-chloro-5,5-dimethyl-3,4,5,6-tetra-hydro-[1,1′-biphenyl]-2-yl)methyl)piperazin-1-yl)-N-((3-((1,1-dioxidothiomorpholino)methyl)-5-nitro-3,4-dihydro-2H-benzo[b][1,4]oxazin-7-yl)sulfonyl)benzamide] | 48 nM | – | – |
| 19 nM | CC1(C)CCC(CN2CCN(c3ccc(C(=O)NS(=O)(=O)c4cc5c(c([N+](=O)[O-])c4)N[C@@H](CN4CCC(N=S(C)(C)=O)CC4)CO5)c(Oc4cnc5[nH]ccc5c4)c3)CC2)=C(c2ccc(Cl)cc2)C1 [Example 2-125, (S)-2-((1H-pyrrolo[2,3-b]pyridin-5-yl)oxy)-4-(4-((4′-chloro-5,5-dimethyl-3,4,5,6-tetra-hydro-[1,1′-biphenyl]-2-yl)methyl)piperazin-1-yl)-N-((3-((4-((dimethyl(oxo)-λ^6-sulfanyl-idene)amino)piperidin-1-yl)methyl)-5-nitro-3,4-dihydro-2H-benzo[b][1,4]oxa-zin-7-yl)sulfonyl)benzamide] | 43 nM | – | – |
| 5 nM | CC1(C)CCC(CN2CCN(c3ccc(C(=O)NS(=O)(=O)c4cc5c(c([N+](=O)[O-])c4)N[C@H](CCN4CCS(=O)(=O)CC4)CO5)c(Oc4cnc5[nH]ccc5c4)c3)CC2)=C(c2ccc(Cl)cc2)C1 [Example 2-126, (R)-2-((1H-pyrrolo[2,3-b]pyridin-5-yl)oxy)-4-(4-((4′-chloro-5,5-dimethyl-3,4,5,6-tetra-hydro-[1,1′-biphenyl]-2-yl)methyl)piperazin-1-yl)-N-((3-(2-(1,1-dioxidothiomorpholino)ethyl)-5-nitro-3,4-dihydro-2H-benzo[b] [1,4]oxazin-7-yl)sulfonyl)benzamide] | 11 nM | – | – |
| 23 nM | CN=S1(=O)CCN(CC[C@@H]2COc3cc(S(=O)(=O)NC(=O)c4ccc(N5CCN(CC6=C(c7ccc(Cl)cc7)CC(C)(C)CC6)CC5)cc4Oc4cnc5[nH]ccc5c4)cc([N+](=O)[O-])c3N2)CC1 [Example 2-127] | 42 nM | – | – |
